Measurements published in patent US6737383B1, “Herbicidal oxadiazolidines” (priority 1999, dated 2004).

Columns and labels:
soybean = assay: Test B pre/postemergence soybean; type: in vivo, Glycine max
Outline: (§1)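 Response is a visual 0-to-10 score relative to untreated plants, where 0 means no effect and 10 means complete control, taken twelve to sixteen days after application. Treatments went onto soil at planting and onto foliage of 1- to 4-leaf plants, using a surfactant-containing non-phytotoxic solvent.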

bedstraw = assay: Test B pre/postemergence bedstraw; type: in vivo, Galium aparine
Outline: as §1

surinam grass = assay: Test B pre/postemergence surinam grass; type: in vivo, Brachiaria decumbens
Outline: as §1

giant foxtail = assay: Test B pre/postemergence giant foxtail; type: in vivo, Setaria faberii
Outline: as §1

[1] = Postemergence, Rate 125 g/ha, scale of 0 to 10 where 0 is no effect and 10 is complete control
[2] = Postemergence, Rate 250 g/ha, scale of 0 to 10, 0 is no effect, 10 is complete control
[3] = Postemergence, Rate 1000 g/ha, scale 0 to 10 (0 no effect, 10 complete control)
[4] = Preemergence, Rate 125 g/ha, scale of 0 to 10 where 0 is no effect and 10 is complete control
[5] = Preemergence, Rate 250 g/ha, scale 0 to 10 (0 no effect, 10 complete control)
[6] = Preemergence, Rate 500 g/ha, scale of 0 to 10 where 0 is no effect and 10 is complete control
[7] = Rate 1000 g/ha, Preemergence, scale 0 to 10 (0 no effect, 10 complete control)
[8] = Postemergence, Rate 500 g/ha, scale of 0 to 10 where 0 is no effect and 10 is complete control
[9] = Postemergence, Rate 250 g/ha, scale 0 to 10
[10] = Preemergence, Rate 62 g/ha, scale 0 to 10 (0 no effect, 10 complete control)
[11] = Preemergence, Rate 250 g/ha, scale 0 to 10, 0 is no effect, 10 is complete control
[12] = Preemergence, Rate 500 g/ha, scale 0 to 10, 0 is no effect, 10 is complete control
[13] = Rate 125 g/ha, Postemergence, scale 0 to 10, 0 is no effect, 10 is complete control
[14] = Rate 62 g/ha, Postemergence, scale of 0 to 10 where 0 is no effect and 10 is complete control
[15] = Preemergence, Rate 62 g/ha, scale of 0 to 10 where 0 is no effect and 10 is complete control
[16] = Preemergence, Rate 250 g/ha, scale of 0 to 10 where 0 is no effect and 10 is complete control
[17] = Rate 62 g/ha, Postemergence, scale 0 to 10 (0 no effect, 10 complete control)
[18] = Rate 125 g/ha, Postemergence, scale of 0 to 10 where 0 is no effect and 10 is complete control
[19] = Rate 125 g/ha, Preemergence, scale of 0 to 10 where 0 is no effect and 10 is complete control
[20] = Rate 250 g/ha, Postemergence, scale of 0 to 10 where 0 is no effect and 10 is complete control
[21] = Rate 500 g/ha, Postemergence, scale 0 to 10, 0 no effect, 10 complete control

CCOP(=O)(OCC)C(C)n1c(=O)on(C(=O)N(c2ccc(F)cc2)C(C)C)c1=O (centres unmarked) [Compound 617]
Plant response rating, Soybean (soybean; [1]): 1 | Soybean plant response rating (soybean; [2]): 3 | Soybean plant response rating (soybean; [3]): 7 | Soybean plant response rating (soybean; [4]): 0 | Plant response rating, Soybean (soybean; [5]): 0 | Plant response rating, Soybean (soybean; [6]): 0 | Plant response rating, Soybean (soybean; [7]): 1 | Bedstraw plant response rating (bedstraw; [4]): 0 | Plant response rating, Bedstraw (bedstraw; [5]): 0 | Bedstraw plant response rating (bedstraw; [6]): 0 | Plant response rating, Bedstraw (bedstraw; [7]): 0 | Plant response rating, B. signalgrass (surinam grass; [1]): 0 | B. signalgrass plant response rating (surinam grass; [2]): 0 | Plant response rating, B. signalgrass (surinam grass; [8]): 0 | B. signalgrass plant response rating (surinam grass; [3]): 3 | B. signalgrass plant response rating (surinam grass; [4]): 0 | Plant response rating, B. signalgrass (surinam grass; [5]): 4 | B. signalgrass plant response rating (surinam grass; [6]): 5 | Plant response rating, B. signalgrass (surinam grass; [7]): 8 | Plant response rating, Giant foxtail (giant foxtail; [1]): 0 | Giant foxtail plant response rating (giant foxtail; [2]): 4 | Plant response rating, Giant foxtail (giant foxtail; [8]): 0 | Giant foxtail plant response rating (giant foxtail; [3]): 6 | Giant foxtail plant response rating (giant foxtail; [4]): 9 | Plant response rating, Giant foxtail (giant foxtail; [5]): 9 | Plant response rating, Giant foxtail (giant foxtail; [6]): 9 | Plant response rating, Giant foxtail (giant foxtail; [7]): 10

CC(C)N(C(=O)n1oc(=O)n(CC#N)c1=O)c1ccccc1 [Compound 434]
Soybean plant response rating (soybean; [9]): 1 | Soybean plant response rating (soybean; [8]): 1 | Plant response rating, Soybean (soybean; [10]): 0 | Plant response rating, Soybean (soybean; [4]): 0 | Soybean plant response rating (soybean; [11]): 0 | Soybean plant response rating (soybean; [12]): 0 | Soybean plant response rating (soybean; [13]): 0 | Bedstraw plant response rating (bedstraw; [14]): 0 | Bedstraw plant response rating (bedstraw; [13]): 0 | B. signalgrass plant response rating (surinam grass; Postemergence, Rate 250 g/ha, scale 0 to 10, 0 no effect, 10 complete control): 0 | B. signalgrass plant response rating (surinam grass; [8]): 0 | Plant response rating, B. signalgrass (surinam grass; [10]): 0 | Plant response rating, B. signalgrass (surinam grass; [4]): 0 | B. signalgrass plant response rating (surinam grass; [11]): 0 | B. signalgrass plant response rating (surinam grass; [12]): 0 | B. signalgrass plant response rating (surinam grass; [14]): 0 | B. signalgrass plant response rating (surinam grass; [13]): 0 | Giant foxtail plant response rating (giant foxtail; [9]): 1 | Giant foxtail plant response rating (giant foxtail; [8]): 4 | Plant response rating, Giant foxtail (giant foxtail; [10]): 0 | Plant response rating, Giant foxtail (giant foxtail; [4]): 0 | Giant foxtail plant response rating (giant foxtail; [11]): 0 | Giant foxtail plant response rating (giant foxtail; [12]): 2 | Giant foxtail plant response rating (giant foxtail; [14]): 0 | Giant foxtail plant response rating (giant foxtail; [13]): 0

Cc1ccccc1-n1c(=O)on(C(=O)N(c2ccc3c(c2)CCC3)C(C)C)c1=O [Compound 278]
Soybean plant response rating (soybean; [15]): 0 | Soybean plant response rating (soybean; [16]): 0 | Plant response rating, Soybean (soybean; [6]): 0 | Soybean plant response rating (soybean; [17]): 1 | Soybean plant response rating (soybean; [18]): 1 | Soybean plant response rating (soybean; [19]): 0 | Plant response rating, Soybean (soybean; [20]): 1 | Soybean plant response rating (soybean; [21]): 1 | Bedstraw plant response rating (bedstraw; [16]): 0 | Plant response rating, Bedstraw (bedstraw; [6]): 0 | Bedstraw plant response rating (bedstraw; [17]): 0 | Bedstraw plant response rating (bedstraw; [18]): 0 | Bedstraw plant response rating (bedstraw; [19]): 0 | Plant response rating, Bedstraw (bedstraw; [20]): 6 | Bedstraw plant response rating (bedstraw; [21]): 8 | B. signalgrass plant response rating (surinam grass; [15]): 0 | B. signalgrass plant response rating (surinam grass; [16]): 0 | Plant response rating, B. signalgrass (surinam grass; [6]): 0 | B. signalgrass plant response rating (surinam grass; [17]): 0 | B. signalgrass plant response rating (surinam grass; [18]): 0 | B. signalgrass plant response rating (surinam grass; [19]): 0 | Plant response rating, B. signalgrass (surinam grass; [20]): 0 | B. signalgrass plant response rating (surinam grass; [21]): 0 | Giant foxtail plant response rating (giant foxtail; [15]): 0 | Giant foxtail plant response rating (giant foxtail; [16]): 2 | Plant response rating, Giant foxtail (giant foxtail; [6]): 8 | Giant foxtail plant response rating (giant foxtail; [17]): 0 | Giant foxtail plant response rating (giant foxtail; [18]): 0 | Giant foxtail plant response rating (giant foxtail; [19]): 2 | Plant response rating, Giant foxtail (giant foxtail; [20]): 0 | Giant foxtail plant response rating (giant foxtail; [21]): 0
